Results on ten molecules are retold here after ChEMBL document CHEMBL1275603, “Incidence and antimicrobial susceptibility of Escherichia coli and Klebsiella pneumoniae with extended-spectrum beta-lactamases in community- and hospital-associated intra-abdominal infections in Europe: results of the 2008 Study for Monitoring Antimicrobial Resistance Trends (SMART)” (2010).

What all share (format): functional
For assay [1], the system named is Klebsiella pneumoniae. The experiment in a line: Antimicrobial activity against hospital-acquired Klebsiella pneumoniae expressing extended spectrum beta-lactamase obtained from patient with intra-abdominal infection assessed as susceptible isolates by EUCAST method.
The test system of assay [2] is Escherichia coli. The experiment in a line: Antimicrobial activity against hospital-acquired Escherichia coli expressing extended spectrum beta-lactamase obtained from patient with intra-abdominal infection assessed as susceptible isolates by EUCAST method.
Assay [3] concerns Klebsiella pneumoniae. In words: Antimicrobial activity against community-acquired Klebsiella pneumoniae expressing extended spectrum beta-lactamase obtained from patient with intra-abdominal infection assessed as susceptible isolates by EUCAST method.
Assay [4] relates to Escherichia coli. The experiment in a line: Antimicrobial activity against community-acquired Escherichia coli obtained from patient with intra-abdominal infection assessed as susceptible isolates by EUCAST method.
For assay [5], the system named is Klebsiella pneumoniae. The experiment in a line: Antimicrobial activity against hospital-acquired Klebsiella pneumoniae obtained from patient with intra-abdominal infection assessed as susceptible isolates by EUCAST method.
The test system of assay [6] is Klebsiella pneumoniae. In words: Antimicrobial activity against community-acquired Klebsiella pneumoniae obtained from patient with intra-abdominal infection assessed as susceptible isolates by EUCAST method.
Assay [7] has as its system Escherichia coli. In words: Antimicrobial activity against hospital-acquired Escherichia coli obtained from patient with intra-abdominal infection assessed as susceptible isolates by EUCAST method.
Assay [8] concerns Escherichia coli. The experiment in a line: Antimicrobial activity against community-acquired Escherichia coli expressing extended spectrum beta-lactamase obtained from patient with intra-abdominal infection assessed as susceptible isolates by EUCAST method.
Assay [9] concerns Escherichia coli. In words: Antimicrobial activity against community-acquired Escherichia coli obtained from patient with intra-abdominal infection assessed as susceptible isolates by EUCAST method in presence of beta-lactamase inhibitor Sulbactam.
Assay [10] has as its system Escherichia coli. In words: Antimicrobial activity against hospital-acquired Escherichia coli expressing extended spectrum beta-lactamase obtained from patient with intra-abdominal infection assessed as susceptible isolates by EUCAST method in presence of beta-lactamase inhibitor Sulbactam.
For assay [11], the system named is Escherichia coli. In words: Antimicrobial activity against hospital-acquired Escherichia coli obtained from patient with intra-abdominal infection assessed as susceptible isolates by EUCAST method in presence of beta-lactamase inhibitor Sulbactam.
Assay [12] has as its system Klebsiella pneumoniae. The experiment in a line: Antimicrobial activity against community-acquired Klebsiella pneumoniae expressing extended spectrum beta-lactamase obtained from patient with intra-abdominal infection assessed as susceptible isolates by EUCAST method in presence of beta-lactamase inhibitor Sulbactam.
The test system of assay [13] is Klebsiella pneumoniae. In words: Antimicrobial activity against community-acquired Klebsiella pneumoniae obtained from patient with intra-abdominal infection assessed as susceptible isolates by EUCAST method in presence of beta-lactamase inhibitor Sulbactam.
For assay [14], the system named is Escherichia coli. In words: Antimicrobial activity against community-acquired Escherichia coli expressing extended spectrum beta-lactamase obtained from patient with intra-abdominal infection assessed as susceptible isolates by EUCAST method in presence of beta-lactamase inhibitor Sulbactam.
Assay [15] has as its system Klebsiella pneumoniae. In words: Antimicrobial activity against hospital-acquired Klebsiella pneumoniae expressing extended spectrum beta-lactamase obtained from patient with intra-abdominal infection assessed as susceptible isolates by EUCAST method in presence of beta-lactamase inhibitor Sulbactam.
Assay [16] deals with Klebsiella pneumoniae. The experiment in a line: Antimicrobial activity against hospital-acquired Klebsiella pneumoniae obtained from patient with intra-abdominal infection assessed as susceptible isolates by EUCAST method in presence of beta-lactamase inhibitor Sulbactam.

Each structure is given as a SMILES string.

As to `NCC[C@H](O)C(=O)N[C@@H]1C[C@H](N)[C@@H](O[C@H]2O[C@H](CN)[C@@H](O)[C@H](O)[C@H]2O)[C@H](O)[C@H]1O[C@H]1O[C@H](CO)[C@@H](O)[C@H](N)[C@H]1O` [AMIKACIN], the Activity in assay [1] stood at 66%; in [2], 53.7%; in assay [3] it was 75%; in assay [4], 98.5%; in assay [5], 92.7%; in [6], 98.6%. For the same molecule, the Activity in assay [7] was determined as 97%; in assay [8], 59.5%.
Take `CC1(C)S[C@@H]2[C@H](NC(=O)[C@H](N)c3ccccc3)C(=O)N2[C@H]1C(=O)O` [AMPICILLIN]: the Activity in [9] was 53%; in [10] it was 9.1%; in assay [11], 44.5%; in assay [12], 0%; in assay [13] it was 79.2%; in [14] it was 5.4%. For the same molecule, the Activity in assay [15] was found to be 6.4%; in assay [16] it was 62.9%.
`CO/N=C(\C(=O)N[C@@H]1C(=O)N2C(C(=O)[O-])=C(C[N+]3(C)CCCC3)CS[C@H]12)c1csc(N)n1` [CEFEPIME]: the Activity was determined as 10.6% in [1]; 9.9% in [2]; 0% in [3]; 98.5% in [4]; 91.6% in assay [5]; 98.6% in assay [6]. Further, the Activity in [8] was 8.1%.
As to `CO/N=C(\C(=O)N[C@@H]1C(=O)N2C(C(=O)O)=C(COC(C)=O)CS[C@H]12)c1csc(N)n1` [CEFOTAXIME], the Activity is 6.4% in assay [1]; 3.3% in [2]; 0% in assay [3]; 98.7% in assay [4]; 92.1% in [5]; 100% in assay [6]. Besides, the Activity is given as 95.8% in [7] and 0% in assay [8].
Take `CC(C)(O/N=C(\C(=O)N[C@@H]1C(=O)N2C(C(=O)[O-])=C(C[n+]3ccccc3)CS[C@H]12)c1csc(N)n1)C(=O)O` [CEFTAZIDIME]: the Activity in assay [1] is 0%; in assay [2], 5.8%; in [3], 0%; in assay [4], 97.2%; in [5], 91%; in assay [6], 98.6%. Besides, the Activity in assay [7] is recorded as 94.3%; in assay [8] it was 8.1%.
In the case of `CO/N=C(\C(=O)N[C@@H]1C(=O)N2C(C(=O)O)=C(CSc3nc(=O)c(O)nn3C)CS[C@H]12)c1csc(N)n1` [CEFTRIAXONE], the Activity in [1] is given as 4.3%; in [2], 3.3%; in [3], 0%; in [4], 98.3%; in [5] it was 90.5%; in assay [6] it was 98.6%. The Activity is 95.8% in assay [7] and 2.7% in assay [8].
In the case of `O=C(O)c1cn(C2CC2)c2cc(N3CCNCC3)c(F)cc2c1=O` [CIPROFLOXACIN], the Activity worked out at 29.8% in assay [1]; 22.3% in assay [2]; 50% in assay [3]; 79.2% in assay [5]; 94.4% in assay [6]; 78.3% in [7]. In addition, in [8], the Activity is listed as 29.7%.
`C[C@@H](O)[C@H]1C(=O)N2C(C(=O)O)=C(S[C@@H]3CN[C@H](C(=O)Nc4cccc(C(=O)O)c4)C3)[C@H](C)[C@H]12` [ERTAPENEM]: the Activity in assay [1] is given as 83%; in assay [2] it was 99.2%; in assay [3] it was 100%; in assay [4] it was 99.3%; in [5], 93.3%; in assay [6] it was 100%. Besides, the Activity is listed as 98.9% in assay [7] and 100% in assay [8].
In the case of `C[C@@H](O)[C@H]1C(=O)N2C(C(=O)O)=C(SCCNC=N)C[C@H]12` [IMIPENEM ANHYDROUS], the Activity was found to be 89.4% in assay [1]; 100% in assay [2]; 100% in assay [3]; 99.8% in [4]; 94.9% in [5]; 100% in assay [6]. For the same molecule, the figures for the Activity in assay [7] and in assay [8] were 99.6% and 100%, respectively.
Regarding `C[C@H]1COc2c(N3CCN(C)CC3)c(F)cc3c(=O)c(C(=O)O)cn1c23.C[C@H]1COc2c(N3CCN(C)CC3)c(F)cc3c(=O)c(C(=O)O)cn1c23.O` [LEVOFLOXACIN], the Activity in [1] came out at 40.4%; in [2], 24.8%; in assay [3], 50%; in [4], 87%; in assay [5], 83.2%; in assay [6], 97.2%. Also, the figures for the Activity in assay [7] and in assay [8] were 79.8% and 32.4%, respectively.
